Results reported in patent US20040005708A1, “Polypeptide derivatives and nucleic acid carriers containing the same” (priority 2002, published 2004).

Experiments:
[1] = system: HepG2 cells; settings: Plasmid A (luciferase) complex, plasmid/pDBA weight ratio 1/3 to 1/7, 10% fetal bovine serum, 4 h then 48 h incubation, compared to non-modified pDBA
Method: Thirty minutes prior to administration, the nucleic acid carriers were added dropwise to the plasmid solution while stirring to prepare plasmid/pDBA complex solutions. PBS was used as solvent. Specifically, 25.0 μg/ml plasmid solutions were prepared, and plasmid/pDBA complex solutions having a plasmid concentration of 12.5 μg/ml were used as the gene transfer samples.
HepG2 cells were inoculated onto a 12-well multi-well plate (Coaster Inc.) at 1×10^5 cells/well one day prior to testing. The plasmid/pDBA complex solution was added to the HepG2 cells in the presence of 10% fetal bovine serum (Sanko Junyaku Co. Ltd.), and incubation was carried out at 37° C. for 4 hours. Medium was exchanged with a fresh culture medium and incubation continued for 48 hours. After washing with PBS twice, a cell lysis reagent (Toyo Ink Co. Ltd.) was added and freeze-thaw was carried out once. The cell lysate was recovered and subjected to centrifugation (12,000 rpm×10 minutes). The luciferase activity of the supernatant was determined with a luminometer (LumitLB9501; Berthold Inc.) using a luciferase assay system (Toyo Ink Co. Ltd.). The protein concentration of the centrifuged supernatant was also determined with a microplate reader (Rainbow Themo; Tecan Inc.) using a protein assay kit (Bio-Rad Inc.). […]

[2] = system: mice; settings: tail vein, Plasmid A 12.5 μg/0.5 ml per mouse, plasmid/pDBA weight ratio 1/3, two days after administration
Method: A solution of Plasmid A and a solution of pDBA were prepared at twice the desired concentration. Thirty minutes prior to administration, the pDBA solutions were added dropwise to the plasmid solution while stirring to prepare plasmid/pDBA complexes solution. PBS was used as solvent. Specifically, 50.0 μg/ml plasmid solutions were prepared, and plasmid/pDBA complex solutions having a plasmid concentration of 25 μg/ml were used as the gene transfer samples.
The complex solutions were administered to mice through their tail veins. The dosage of Plasmid A per mouse was 12.5 μg/0.5 ml. Two days after administration the gene transfer to the tissue was determined by measuring the luciferase activity found in the liver.

side chain galactose-modified poly-DL-diaminobutyric acid [Gal-pDBA]
activity of luciferase expressed [1]: higher luciferase activity than did non-modified pDBA
luciferase activity in the liver as compared to the group where pDBA was used as the nucleic acid carrier [2]: about 2.5 fold
